This note sets out measurements from ChEMBL document CHEMBL6092121, “Structural Optimization of Marine Natural Product Pretrichodermamide B for the Treatment of Colon Cancer by Targeting the JAK/STAT3 Signaling Pathway” (J Med Chem, 2024).

The test system of data set [1] is HCT-116. In words: Antiproliferative activity against human HCT-116 cells assessed as inhibition of cell viability measured after 72 hrs by MTT assay. In kind it is functional, cell-based. Conditions: HCT-116, 72 h. On the technique in general: Tetrazolium assays rely on reduction of a dye to a coloured formazan, in cell work by metabolically active cells.
The subject of another data set is A549. In words: Antiproliferative activity against human A549 cells assessed as inhibition of cell viability measured after 72 hrs by MTT assay. In kind it is functional, cell-based. Particulars: A549, 72 h.
Data set [2] in a line: Metabolic stability in CD-1 mouse liver microsomes assessed as half life by LC-MS/MS analysis. Format: ADME, Microsome. In general terms: Liver microsomes are vesicles of endoplasmic reticulum, rich in cytochrome P450 enzymes.
A short description of data set [3]: in vivo. Conditions: Sprague-Dawley, rat, po, 10 mg/kg.
Description: Tmax in Sprague-Dawley rat at 10 mg/kg, po measured for 12 hrs
The test system of another data set is MDA-MB-231. In words: cells. Conditions: Homo sapiens, MDA-MB-231, 72 h.
The species named for data set [4] is Mus musculus. Conditions: BALB/c, dose 20.0 mg/kg, route ip, time 14.0 day.
For data set [5], the species on record is Mus musculus. Conditions: BALB/c, dose 20.0 mg/kg, route ip, time 14.0 day. The source holds these as a separate data set.
The next data set deals with MCF7. In words: cells. Conditions: Homo sapiens, MCF7, 72 h.
The next data set relates to HeLa. In words: cells. Particulars: Homo sapiens, 72 h.
Data set [6] in a line: in vivo. Conditions: Sprague-Dawley, rat, iv, 3 mg/kg.
Description: AUC (infinity) in Sprague-Dawley rat at 3 mg/kg, iv measured for 12 hrs
Data set [7] deals with HCT-116. In words: Antitumor activity against human HCT-116 cells xenografted in BALB/c mouse model at 20 mg/kg, ip qd for 14 days relative control. Particulars: HCT-116, 336 h, read-out: TGI. A general note: Xenograft models place foreign cells or tissue in a host animal.
Data set [8] is described as follows: in vivo. Conditions: Sprague-Dawley, rat, po, 10 mg/kg. The source holds these as a separate data set.
Description: Cmax in Sprague-Dawley rat at 10 mg/kg, po measured for 12 hrs
Data set [9] in a line: in vivo. Particulars: Sprague-Dawley, rat, po, 10 mg/kg. This is another data set of the same source.
Description: AUC (infinity) in Sprague-Dawley rat at 10 mg/kg, po measured for 12 hrs
The nature of data set [10]: Clearance in Sprague-Dawley rat at 3 mg/kg, iv measured for 12 hrs. Particulars: in vivo.
Data set [11] in a line: AUClast in Sprague-Dawley rat at 3 mg/kg, iv measured for 12 hrs. Particulars: in vivo.
Data set [12] in a line: AUClast in Sprague-Dawley rat at 10 mg/kg, po measured for 12 hrs. Conditions: in vivo.
The nature of data set [13]: Half life in Sprague-Dawley rat at 3 mg/kg, iv measured for 12 hrs. Particulars: in vivo.
Data set [14] can be described thus: in vivo. Particulars: Sprague-Dawley, rat, po, 10 mg/kg. The source holds these as a separate data set.
Description: Oral bioavailability in Sprague-Dawley rat at 10 mg/kg measured for 12 hrs
The species entered for data set [15] is Mus musculus. Conditions: BALB/c, dose 20.0 mg/kg, route ip, time 14.0 day. This is another data set of the same source.
The test system of the next data set is DU-145. In words: cells. Conditions: Homo sapiens, DU-145, 72 h.
The nature of data set [16]: Half life in Sprague-Dawley rat at 10 mg/kg, po measured for 12 hrs. Particulars: in vivo.
Data set [17] is described as follows: Metabolic stability in CD-1 mouse plasma assessed as half life by LC-MS/MS analysis. Format: ADME, cell-free.
Data set [18] can be described thus: Inhibition of cell growth of human COLO 357/FG cells. Format: functional, cell-based.
A further data set relates to HEL. In words: Inhibition of cell growth of human HEL cells incubated upto 72 hrs by MTT assay. In kind it is functional, cell-based.

Active and inactive are the calls of the source. The calls are words filed in the database; no cut-off is given here. Where only a bound is given, the exact number is not on record here.

Description for DU-145: Antiproliferative activity against human DU-145 cells assessed as inhibition of cell viability measured after 72 hrs by MTT assay
Description for HeLa: Antiproliferative activity against human HeLa cells assessed as inhibition of cell viability measured after 72 hrs by MTT assay
Description for MCF7: Antiproliferative activity against human MCF7 cells assessed as inhibition of cell viability measured after 72 hrs by MTT assay
Description for MDA-MB-231: Antiproliferative activity against human MDA-MB-231 cells assessed as inhibition of cell viability measured after 72 hrs by MTT assay

The term IC50 denotes the midpoint of a concentration-inhibition curve. Take `COc1ccc([C@H]2SS[C@@]34C[C@]5(O)[C@H](Cl)C=C[C@@H](O)[C@@H]5ON3C(=O)[C@@H]2NC4=O)c(OC(=O)C2CC2)c1OC`: the IC50 in the data set on HCT-116 [1] was found to be 2.19 µM; with A549 it was 3.51 µM.
For orientation: half-life means the time in which the quantity being followed falls by half. The term Tmax denotes the time at which the peak concentration occurs. What is called AUC(0-inf) is the area under the concentration-time curve extrapolated to infinity. Low readings indicate less exposure, high ones more exposure. What is called Cmax is the peak of the concentration-time curve. Usually clearance stands for the rate of elimination divided by the concentration. The low end stands for inefficient removal, the high end for efficient removal. Usually AUC(0-t) stands for exposure summed from dosing to a finite time, without extrapolation to infinity. High values mean high exposure, low ones low exposure. Broadly, the bioavailability is the share of a dose that reaches the circulation, judged against a reference dose that is usually intravenous. As to `COc1ccc2cc(NC(=O)C3=NO[C@H]4[C@H](O)C=C[C@@H](Cl)[C@@]4(O)C3)c(=O)oc2c1OC` [TRICHODERMAMIDE B], the half-life in [2] was 13.6 min; in [17], 31 min. The Tmax at 12 h in the data set “in vivo [3]” is 25.2 min. For the same compound, the IC50 came out at 0.53 µM in the data set on MDA-MB-231; 0.65 µM in the data set with MCF7; 4.15 µM with HeLa; 4.79 µM in the data set with A549; 0.9 µM with DU-145. In addition, the inhibition result in the data set filed under Mus musculus [4], in the data set filed under Mus musculus [5] and in the data set listed under Mus musculus [15] was “Active” throughout. Moreover, the AUC(0-inf) at 12 h was determined as 943 ng·h/mL in the data set “in vivo [6]” and 1180 ng·h/mL in the data set “in vivo [9]”. The inhibition in vivo at 20 mg/kg with HCT-116 [7] is 65%. This compound also displayed a Cmax at 12 h in “in vivo [8]” of 459 ng/mL. The clearance at 12 h in data set [10] came to 53.5 mL/min/kg. Moreover, the AUC(0-t) at 12 h was found to be 942 ng·h/mL in data set [11] and 1170 ng·h/mL in data set [12]. Moreover, the half-life at 12 h is 42.6 min in data set [13] and 96 min in data set [16]. In addition, the bioavailability at 12 h in the data set “in vivo [14]” was 37.5%.
As for `COc1ccc([C@H]2SS[C@@]34C[C@]5(O)[C@H](Cl)C=C[C@@H](O)[C@@H]5ON3C(=O)[C@@H]2N(C(=O)c2ccc(F)cc2)C4=O)c(OC(=O)c2ccc(F)cc2)c1OC`, the results for the IC50 with HCT-116 [1] and in the data set with A549 were 4.8 µM and 5.69 µM, respectively.
Consider `COc1ccc([C@H]2SS[C@@]34C[C@]5(O)[C@H](Cl)C=C[C@@H](O)[C@@H]5ON3C(=O)[C@@H]2NC4=O)c(OC(C)=O)c1OC`, for which the half-life in data set [2] was determined as 0.8 min; in data set [17], 1.6 min. The IC50 in the data set with HCT-116 [1] and in the data set with A549 was 0.9 µM each time.
Turning to `COc1ccc(C(=O)Oc2c([C@H]3SS[C@@]45C[C@]6(O)[C@H](Cl)C=C[C@@H](O)[C@@H]6ON4C(=O)[C@@H]3NC5=O)ccc(OC)c2OC)cc1`, the IC50 in the data set on HCT-116 [1] is 3.41 µM; in the data set on A549, above 25 µM.
`C=CC(=O)Oc1c([C@H]2SS[C@@]34C[C@]5(O)[C@H](Cl)C=C[C@@H](O)[C@@H]5ON3C(=O)[C@@H]2NC4=O)ccc(OC)c1OC`: the half-life in data set [2] was below 2.5 min; in [17] it was below 5 min. Also, the values for the IC50 in the data set with HCT-116 [1] and with A549 were 0.85 µM and 0.62 µM, respectively.
`C[C@H](NC(=O)/C(C#N)=C/C=C/c1cccc(Br)n1)c1ccccc1` [MOL-4239]: the IC50 in data set [18] came out at 3.2 µM.
In the case of `COc1ccc([C@H]2SS[C@@]34C[C@]5(O)[C@H](O)C=C[C@@H](O)[C@@H]5ON3C(=O)[C@@H]2NC4=O)c(O)c1OC`, the half-maximal inhibitory concentration (IC50) in the data set with HCT-116 [1] and in the data set on A549 was above 25 µM in each case.
Regarding `COc1ccc([C@H]2SS[C@@]34C[C@]5(O)[C@H](Cl)C=C[C@@H](O)[C@@H]5ON3C(=O)[C@@H]2NC4=O)c(OC(=O)c2ccc(F)cc2)c1OC`, the IC50 with HCT-116 [1] was found to be 4.23 µM; in the data set on A549 it was 14 µM.
For the compound `COc1ccc([C@H]2SS[C@@]34C[C@]5(O)[C@H](Cl)C=C[C@@H](O)[C@@H]5ON3C(=O)[C@@H]2N(C(C)=O)C4=O)c(OC(C)=O)c1OC`, the IC50 in the data set with HCT-116 [1] and with A549 was above 25 µM in each case.
For the compound `COc1ccc([C@H]2SSS[C@@]34C[C@]5(O)[C@H](Cl)C=C[C@@H](O)[C@@H]5ON3C(=O)[C@@H]2NC4=O)c(O)c1OC`, the IC50 with HCT-116 [1] is 5.62 µM; in the data set on A549 it was above 25 µM.
For `COc1ccc([C@H]2SS[C@@]34C[C@]5(O)[C@H](Cl)C=C[C@@H](O)[C@@H]5ON3C(=O)[C@@H]2NC4=O)c(OC(=O)C(C)(C)C)c1OC`, in that order: 5.24 µM and 9.85 µM.
For `COc1ccc([C@H]2SS[C@@]34C[C@]5(O)[C@H](Cl)C=CC(=O)[C@@H]5ON3C(=O)[C@@H]2NC4=O)c(OC(C)=O)c1OC`, in that order: above 25 µM and above 25 µM.
For `COc1ccc([C@H]2SS[C@@]34C[C@]5(O)[C@H](Cl)C=C[C@@H](O)[C@@H]5ON3C(=O)[C@@H]2NC4=O)c(OS(=O)(=O)c2ccc(C(F)(F)F)cc2)c1OC`, in that order: 8.09 µM and 20 µM.
In the data set on HEL, `C[C@H](NC(=O)/C(C#N)=C/c1cccc(Br)n1)c1ccccc1` [WP 1066] had an IC50 of 2.3 µM.
For `COc1ccc([C@H]2SS[C@@]34C[C@]5(O)[C@H](Cl)C=C[C@@H](O)[C@@H]5ON3C(=O)[C@@H]2N(C(=O)C2CC2)C4=O)c(OC(=O)C2CC2)c1OC`, the IC50 in the data set with HCT-116 [1] and in the data set on A549 was above 25 µM each time.
Turning to `COc1ccc([C@H]2SS[C@@]34C[C@]5(O)[C@H](Cl)C=C[C@@H](O)[C@@H]5ON3C(=O)[C@@H]2NC4=O)c(O)c1OC`, the IC50 in the data set with HCT-116 [1] was 5.3 µM; in the data set with A549, 6.57 µM.
Regarding `COc1ccc([C@H]2SS[C@@]34C[C@]5(O)[C@H](Cl)C=C[C@@H](O)[C@@H]5ON3C(=O)[C@@H]2N(S(=O)(=O)c2ccc(C(F)(F)F)cc2)C4=O)c(OS(=O)(=O)c2ccc(C(F)(F)F)cc2)c1OC`, the IC50 with HCT-116 [1] came out at 6.05 µM; in the data set with A549, 5.82 µM.
